According to US20200361871A1 (Enterprise Therapeutics Ltd., priority 2018, published 2020):

Biological target: human TMEM16A (TMEM16Aabc variant) (Homo sapiens, UniProt Q5XXA6, DEL476-501, form not given)
Assay: Automated whole-cell patch clamp (Qpatch) TMEM16A potentiator assay in FRT cells stably expressing human TMEM16A
Assay type: cell-based
Details: for % Potentiation @ 3.33 μM Avg: 3.33 μM solution of test compound, percentage increase of baseline TMEM16A current; for EC50: calculated EC50, Qpatch TMEM16A current at +70 mV
How it was run: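 FRT cells stably expressing human TMEM16Aabc were recorded by automated whole-cell patch clamp, with intracellular Ca2+ buffered for ~EC20 activation, holding −70 mV and step to +70 mV at 0.05 Hz. Compound was applied cumulatively, 5 min per concentration. Peak current increase as % of baseline was fitted to give EC50 and maximum efficacy.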

human TMEM16A (TMEM16Aabc variant), sequence (Q5XXA6 with tags, fused parts or gaps DEL476-501): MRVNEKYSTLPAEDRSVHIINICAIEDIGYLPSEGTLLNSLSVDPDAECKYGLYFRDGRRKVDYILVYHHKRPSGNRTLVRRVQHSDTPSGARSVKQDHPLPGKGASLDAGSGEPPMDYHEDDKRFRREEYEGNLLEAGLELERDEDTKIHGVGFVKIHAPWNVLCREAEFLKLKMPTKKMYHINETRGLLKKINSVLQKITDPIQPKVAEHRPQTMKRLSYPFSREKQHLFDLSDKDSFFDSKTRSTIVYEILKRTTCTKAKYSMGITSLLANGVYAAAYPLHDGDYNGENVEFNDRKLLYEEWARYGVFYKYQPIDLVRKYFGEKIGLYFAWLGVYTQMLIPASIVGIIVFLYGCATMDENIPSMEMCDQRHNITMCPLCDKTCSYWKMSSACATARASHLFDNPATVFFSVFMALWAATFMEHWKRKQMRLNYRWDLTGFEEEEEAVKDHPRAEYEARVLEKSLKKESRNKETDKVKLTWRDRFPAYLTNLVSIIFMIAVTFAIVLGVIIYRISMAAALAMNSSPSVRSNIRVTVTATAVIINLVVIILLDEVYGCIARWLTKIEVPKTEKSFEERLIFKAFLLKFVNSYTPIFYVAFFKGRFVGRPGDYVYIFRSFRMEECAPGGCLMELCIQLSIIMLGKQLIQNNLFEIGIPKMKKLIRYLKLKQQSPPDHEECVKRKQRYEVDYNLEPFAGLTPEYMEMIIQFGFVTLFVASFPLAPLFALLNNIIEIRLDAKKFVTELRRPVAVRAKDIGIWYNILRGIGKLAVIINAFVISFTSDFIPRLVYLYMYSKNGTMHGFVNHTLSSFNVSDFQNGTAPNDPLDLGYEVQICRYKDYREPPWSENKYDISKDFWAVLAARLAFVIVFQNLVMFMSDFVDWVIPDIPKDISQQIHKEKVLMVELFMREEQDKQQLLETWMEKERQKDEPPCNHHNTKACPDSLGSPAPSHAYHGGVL

N#CC12CC(NC(=O)c3cc(NC(=O)Cc4ccccc4Cl)ccn3)(C1)C2 [Example 30.5, 4-[[2-(2-Chlorophenyl)acetyl]amino]-N-(1-cyano-3-bicyclo[1.1.1]pentanyl) pyridine-2-carboxamide]
% Potentiation @ 3.33 μM Avg: 63%

COc1ccc(Cl)cc1CC(=O)Nc1ccnc(C(=O)NC(C)(C)C)c1 [Example 5.10, N-tert-Butyl-4-[[2-(5-chloro-2-methoxy-phenyl)acetyl]amino]pyridine-2-carboxamide]
% Potentiation @ 3.33 μM Avg: 78% | EC50: 3770 nM

O=C(Cc1cc(Cl)ccc1O)Nc1ccnc(C(=O)N[C@@H]2CCC[C@H]2O)c1 [Example 33, 4-[[2-(5-Chloro-2-hydroxy-phenyl)acetyl]amino]-N-[(1R,2R)-2-hydroxycyclopentyl] pyridine-2-carboxamide]
% Potentiation @ 3.33 μM Avg: 245% | EC50: 240 nM

O=C(Cc1cc(F)ccc1O)Nc1ccnc(C(=O)NC2(CO)CCC2)c1 [Example 81.5, 4-[[2-(5-Fluoro-2-hydroxy-phenyl)acetyl]amino]-N-[1-(hydroxymethyl)cyclobutyl] pyridine-2-carboxamide]
% Potentiation @ 3.33 μM Avg: 74%

O=C(Cc1cc(Cl)ccc1O)Nc1ccnc(C(=O)NC(CO)c2ccccn2)c1 (stereo not shown) [Example 35.11, 4-[[2-(5-Chloro-2-hydroxy-phenyl)acetyl]amino]-N-[2-hydroxy-1-(2-pyridyl)ethyl] pyridine-2-carboxamide]
% Potentiation @ 3.33 μM Avg: 107%

CC(C)(C)NC(=O)c1cc(NC(=O)Cc2cc(CN3CCOCC3)ccc2O)ccn1 [Example 70, N-tert-Butyl-4-[[2-[2-hydroxy-5-(morpholinomethyl)phenyl]acetyl]amino]pyridine-2-carboxamide]
% Potentiation @ 3.33 μM Avg: 138%

CC(O)c1cccc(CC(=O)Nc2ccnc(C(=O)NC(C)(C)C)c2)c1 (stereo not shown) [Example 54, N-tert-Butyl-4-[[2-[3-(1-hydroxyethyl)phenyl]acetyl]amino]pyridine-2-carboxamide]
% Potentiation @ 3.33 μM Avg: 62%

CC(NCC(F)(F)F)c1ccc(O)c(CC(=O)Nc2ccnc(C(=O)NC(C)(C)C)c2)c1 (stereo not shown) [Example 67, N-tert-Butyl-4-[[2-[2-hydroxy-5-[1-(2,2,2-trifluoroethylamino)ethyl]phenyl]acetyl]amino]pyridine-2-carboxamide]
% Potentiation @ 3.33 μM Avg: 158% | EC50: 1100 nM

CC1(NC(=O)c2cc(NC(=O)Cc3cc(Cl)ccc3O)ccn2)CCCCC1 [Example 1.7, 4-[[2-(5-Chloro-2-hydroxy-phenyl)acetyl]amino]-N-(1-methylcyclohexyl)pyridine-2-carboxamide]
% Potentiation @ 3.33 μM Avg: 239% | EC50: 150 nM

CC(C)(C)NC(=O)c1cc(NC(=O)Cc2ccccc2Cl)ccn1 [Example 5.20, N-tert-Butyl-4-[[2-(2-chlorophenyl)acetyl]amino]pyridine-2-carboxamide]
% Potentiation @ 3.33 μM Avg: 221% | EC50: 570 nM

CC(C)(C#N)NC(=O)c1cc(NC(=O)Cc2cc(Cl)ccc2O)ccn1 [Example 34, 4-[[2-(5-Chloro-2-hydroxy-phenyl)acetyl]amino]-N-(1-cyano-1-methyl-ethyl)pyridine-2-carboxamide]
% Potentiation @ 3.33 μM Avg: 245% | EC50: 90 nM

CC(C)(C)NC(=O)c1cc(NC(=O)Cc2cccs2)ccn1 [Example 5, N-tert-Butyl-4-[[2-[2-thienyl]acetyl]amino]pyridine-2-carboxamide]
% Potentiation @ 3.33 μM Avg: 78% | EC50: 800 nM

O=C(O)CCCCCCCCCCCNC(=O)c1cc(NC(=O)Cc2cc(Cl)ccc2O)ccn1 [Example 32.1, 12-[[4-[[2-(5-Chloro-2-hydroxy-phenyl)acetyl]amino]pyridine-2-carbonyl]amino]dodecanoic acid]
% Potentiation @ 3.33 μM Avg: 246%

COCC(C)(C#N)NC(=O)c1cc(NC(=O)Cc2cc(Cl)ccc2O)ccn1 (stereo not shown) [Example 35.27, 4-[[2-(5-Chloro-2-hydroxy-phenyl)acetyl]amino]-N-(1-cyano-2-methoxy-1-methyl-ethyl)pyridine-2-carboxamide]
% Potentiation @ 3.33 μM Avg: 496% | EC50: 330 nM

CCCC(C)(C)NC(=O)c1cccc(NC(=O)Cc2cc(Cl)ccc2O)c1 [Example 7.1, 3-[[2-(5-Chloro-2-hydroxy-phenyl)acetyl]amino]-N-(1,1-dimethylbutyl)benzamide]
% Potentiation @ 3.33 μM Avg: 241% | EC50: 340 nM

O=C(Cc1cc(F)ccc1O)Nc1cccc(C(=O)NC2CCCCC2)c1 [Example 35.22, N-Cyclohexyl-3-[[2-(5-fluoro-2-hydroxy-phenyl)acetyl]amino]benzamide]
% Potentiation @ 3.33 μM Avg: 104% | EC50: 220 nM

CC1(NC(=O)c2cc(NC(=O)Cc3cc(Cl)ccc3O)ccn2)CCOCC1 [Example 7.9, 4-[[2-(5-Chloro-2-hydroxy-phenyl)acetyl]amino]-N-(4-methyltetrahydropyran-4-yl)pyridine-2-carboxamide]
% Potentiation @ 3.33 μM Avg: 288% | EC50: 230 nM

CC(C)(C)NC(=O)c1cc(NC(=O)Cc2ccc(F)cc2)ccn1 [Example 5.13, N-tert-Butyl-4-[[2-(4-fluorophenyl)acetyl]amino]pyridine-2-carboxamide]
% Potentiation @ 3.33 μM Avg: 94% | EC50: 1140 nM

CCC(C)(C)NC(=O)c1cccc(NC(=O)Cc2ccccc2O)c1 [Example 1.1, N-(1,1-Dimethylpropyl)-3[[2-(2-hydroxyphenyl)acetyl]amino]benzamide]
% Potentiation @ 3.33 μM Avg: 182% | EC50: 560 nM

O=C(Cc1ccccc1Cl)Nc1ccnc(C(=O)NC23CCC(F)(C2)C3)c1 [Example 30.2, 4-[[2-(2-Chlorophenyl)acetyl]amino]-N-(4-fluoro-1-bicyclo[2.1.1]hexanyl)pyridine-2-carboxamide]
% Potentiation @ 3.33 μM Avg: 221% | EC50: 180 nM

CC1(NC(=O)c2cc(NC(=O)Cc3cc(Cl)c(F)cc3O)ccn2)CCC1 [Example 76, 4-[[2-(5-Chloro-4-fluoro-2-hydroxy-phenyl)acetyl]amino]-N-(1-methylcyclobutyl)pyridine-2-carboxamide]
% Potentiation @ 3.33 μM Avg: 366% | EC50: 220 nM

CC(C)(C)OC(=O)N1CCCC(NC(=O)c2cc(NC(=O)Cc3cc(Cl)ccc3O)ccn2)C1 (stereo not shown) [Example 8.1, tert-Butyl-3-[[4-[[2-(5-chloro-2-hydroxy-phenyl)acetyl]amino]pyridine-2-carbonyl]amino]piperidine-1-carboxylate]
% Potentiation @ 3.33 μM Avg: 155% | EC50: 590 nM

COC(=O)c1ccc(O)c(CC(=O)Nc2cccc(C(=O)NC(C)(C)C)c2)c1 [Example 2.18, Methyl 3-[2-[3-(tert-butylcarbamoyl)anilino]-2-oxo-ethyl]-4-hydroxy-benzoate]
% Potentiation @ 3.33 μM Avg: 118% | EC50: 1410 nM

CC(C)(C)NC(=O)c1cc(NC(=O)Cc2cc(Cl)c(CN3CCOCC3)cc2O)ccn1 [Example 27.2, N-tert-Butyl-4-[[2-[5-chloro-2-hydroxy-4-(morpholinomethyl)phenyl]acetyl]amino]pyridine-2-carboxamide]
% Potentiation @ 3.33 μM Avg: 300%

N#CC1(NC(=O)c2cc(NC(=O)Cc3ccccc3Cl)ccn2)CCC1 [Example 30, 4-[[2-(2-Chlorophenyl)acetyl]amino]-N-(1-cyanocyclobutyl)pyridine-2-carboxamide]
% Potentiation @ 3.33 μM Avg: 113% | EC50: 1220 nM
